Broadly, the IC50 is the midpoint of a concentration-inhibition curve. Lower therefore signals inhibition by little substance.

Here are results for one compound from PMC11396751, “Design, Synthesis, and Anticancer Activity of Novel Enmein-Type Diterpenoid Derivatives Targeting the PI3K/Akt/mTOR Signaling Pathway” (Molecules, 2024).

For one assay, the system named is L-02 cells. Kind of assay: MTT anti-proliferative assay, normal L-02 cells. The format is cell-based. The note with it: means ± SD of three experiments. As to the method:
(§1) A series of novel enmein-type diterpenoid derivatives, 5a–m, were synthesized by introducing a side chain containing a carbamate moiety at the C-6 position of compound 4. The anticancer activities of 5a–m were tested against three human cancer cell lines and one human normal cell line by MTT assay.
(§2) Human non-small cell lung cancer cell lines (A549), human liver cancer cell lines (HepG2), human breast cancer cell lines (MCF-7), and human normal cell lines (L-02) were purchased from the cell bank of the Chinese Academy of Sciences. All cells were placed in RPMI-1640 medium (added 10% fetal bovine serum, […]) and cultured in an aseptic environment with 5% CO2 at 37 °C.
(§3) All derivatives were evaluated for their anti-proliferative activities against three cancer cell lines and one normal cell line by MTT assay. The cells in the logarithmic growth phase were inoculated into 96-well plates (3 × 10^3 cells/well) and incubated for 48 h in a sterile environment with 5% CO2 at 37 °C to make them attach via cell adhesion; then, the cells were co-incubated with target compounds for 48 h. After that, MTT solution (10 µL/well) was added to the cell culture medium to continue incubation for 4 h, following which the medium was replaced with DMSO (150 µL/well). The absorbance values at 490 nm were determined using an enzyme meter (Safire 2, Tecan, Männedorf, Switzerland) and further converted to half-inhibitory concentration values of these compounds.
(In general: Tetrazolium assays rely on reduction of a dye to a coloured formazan, in cell work by metabolically active cells.)

The next assay deals with PI3K/Akt/mTOR pathway. Kind of assay: Western blot analysis in A549 cells. Type of assay: cell-based, human. The note with it: A549, 2, 4 and 8 µM, 48 h. As to the method: The PI3K/Akt/mTOR pathway is a critical intracellular signaling pathway during cancer development that regulates cellular processes such as proliferation, differentiation, apoptosis, and autophagy. Inhibiting the aberrant activation of the PI3K/Akt/mTOR signaling pathway is envisaged as a promising anticancer strategy. Based on KEGG analysis and researching the literature, the PI3K/Akt/mTOR signaling pathway is predicted to be one of the major pathways for 7h to exert its anticancer effects. Therefore, a western blot assay was performed to determine the expression of the main proteins, PI3K, p-PI3K, Akt, p-Akt, mTOR, and p-mTOR, to examine whether the anticancer ability of 7h against A549 cells is related to its modulation of the PI3K/Akt/mTOR pathway.
Western blot was used to determine the effect of 7h against the related protein expression in A549 cells. A549 cells were inoculated in 6-well plates and treated with a grdient concentrations (0, 2, 4, and 8 µM) of 7h for 48 h. The cells were collected, lysed in RIPA buffer, and heated at 100 °C for 10 min. The samples were processed via 10% sodium dodecyl sulfate-polyacrylamide gel electrophoresis (10% SDS-PAGE) and then transferred to a poly vinylidene difluoride (PVDE) membrane. […]

Another assay has as its system HepG2 cells. Put plainly: MTT anti-proliferative assay, HepG2. The format is cell-based, human. As for the experimental part:
as §1, §2, §3

The next assay relates to MCF-7 cells. Kind of assay: MTT anti-proliferative assay, MCF-7. The format is cell-based. The note with it: Homo sapiens, MCF7, 48 h, means ± SD of three experiments. As for the experimental part:
as §1, §2, §3

Another assay has as its system A549 cells. Put plainly: Cell cycle analysis, PI/RNase, flow cytometry. The format is cell-based, human. The note with it: 48 h. As to the method:
Cell cycle regulation is an essential process in maintaining normal bodily functions and is often disturbed in cancer cells. The inducement of cell cycle arrest is considered a key avenue for targeted cancer therapy. As a novel enmein-type diterpenoid derivative with remarkable anti-proliferative effects against A549 cells, 7h may have the ability to induce cell cycle arrest. Therefore, A549 cells were treated with 7h, stained with PI/RNase solution, and analyzed for their cell cycle distribution by flow cytometry.
A549 cells were inoculated into 24-well plates and attached via cell adhesion. Then, gradient concentrations (0, 2, 4, and 8 µM) of 7h were added and the cells were co-incubated for 48 h. The cells were cleaned with ice-cold phosphate buffer solution (PBS), digested with trypsin, collected, and prepared as a cell suspension. The cell suspension was treated with PI/RNase staining solution, the data were gathered using a flow cytometer (FACS Calibur, BD, Milpitas, CA, USA), and the cell cycle distribution was analyzed using Flow Jo software. Three attempts were performed for each treatment to eliminate experimental bias.
On the technique in general: A flow cytometer gives signals particle by particle.

As to `C=C1C(=O)C23C(=O)OC45CCC(C)(C)C6C(OC(=O)CCC(=O)N7CCC(c8noc9cc(F)ccc89)CC7)OCC64C2CCC1C3O5` (single isomer, unassigned; ent-6) [Compound 7h, ent-6β,14α-Dihydroxy-(1,7–1,14)-epoxy-7,15-dioxo-6,20-hemiketal-6,7-seco-16-kaurene-6β-yl 4-(4-(6-fluorobenzo[d]isoxazol-3-yl)piperidin-1-yl)-4-oxobutanoate], the IC50 is over 100 µM in the assay with L-02 cells (Homo sapiens, L02, 48 h); over 50 µM in the assay on L-02 cells (human normal cells, 48 h); 6.1 ± 1.24 µM in the assay with HepG2 cells (Homo sapiens, HepG2, MTT, 48 h, means ± SD of three experiments); 6.74 ± 1.94 µM with MCF-7 cells. Further, the “Akt protein phosphorylation expression” value in the assay with PI3K/Akt/mTOR pathway is on record as “showed an effect on Akt protein phosphorylation expression”. Moreover, in the assay with PI3K/Akt/mTOR pathway (dose-dependent, vs blank control), the “expression levels of p-PI3K and p-mTOR” value is recorded as “effectively reduce”. Besides, the “anticancer activity in words, HepG2” value in the assay on HepG2 cells (HepG2 cells) is recorded as “low micro-molar-level anticancer activities”. Besides, the “cells in G0/G1 phase” value in the assay on A549 cells (A549, 2 µM) is given as 62.99%; in the assay on A549 cells (A549, 4 µM), 71.04%; with A549 cells (A549, 8 µM) it was 89.87%. Further, the “cells in G2/M phase” value with A549 cells (A549, 2 µM) was 16.21%; in the assay with A549 cells (A549, 4 µM), 17.63%; in the assay on A549 cells (A549, 8 µM) it was 3.93%. The “cells in S phase” value with A549 cells (A549, 2 µM) is on record as 20.80%; in the assay on A549 cells (A549, 4 µM), 11.33%; with A549 cells (A549, 8 µM) it was 6.10%.
